Laboratory results taken from patent US8367684B2, “Derivatives of 4-(N-azacycloalkyl) anilides as potassium channel modulators” (Valeant Pharmaceuticals International, priority 2007, dated 2013).

These compounds were tested on potassium ion channels (assay: Rubidium (Rb+) efflux assay in NGF-differentiated PC-12 cells, potassium channel modulation). Details: depolarization buffer with 15 mM KCl, 10 min at room temperature, read-out: ACTIVITY (EC50, compound's concentration for 50% of maximal Rb+ efflux).
Type: cell-based
Protocol: Compounds of this invention formula were evaluated as potassium channel modulators by measuring rhubidium release in the following assay.
Methods: PC-12 cells were grown at 37° C. and 5% CO2 in DMEM/F12 Medium supplemented with 10% horse serum, 5% fetal bovine serum, 2 mM glutamine, 100 U/ml penicillin, 100 U/ml streptomycin. They were plated in poly-D-lysine-coated 96-well cell culture microplates at a density of 40,000 cells/well and differentiated with 100 ng/ml NGF-7s for 2-5 days. For the assay, the medium was aspirated and the cells were washed once with 0.2 ml in wash buffer (25 mM Hepes, pH 7.4, 150 mM NaCl, 1 mM MgCl2, 0.8 mM NaH2PO4, 2 mM CaCl2). The cells were then loaded with 0.2 ml Rb^+ loading buffer (wash buffer plus 5.4 mM […], 5 mM glucose) and incubated at 37° C. for 2 h. Attached cells were quickly washed three times with buffer (same as Rb^+ loading buffer, but containing 5.4 mM KCl instead of RbCl) to remove extracellular Rb^+. Immediately following the wash, 0.2 ml of depolarization buffer (wash buffer plus 15 mM KCl) with or without compounds was added to the cells to activate efflux of potassium ion channels. After incubation for 10 min at room temperature, the supernatant was carefully removed and collected. Cells were lysed by the addition of 0.2 ml of lysis buffer (depolarization buffer plus 0.1% Triton X-100) and the cell lysates were also collected. If collected samples were not immediately analyzed for Rb^+ contents by atomic absorption spectroscopy (see below), they were stored at 4° C. without any negative effects on subsequent Rb^+ analysis.
The concentration of Rb^+ in the supernatants (Rb^+Sup) and cell lysates (Rb^+Lys) was quantified using an ICR8000 flame atomic absorption spectrometer (Aurora Biomed Inc., Vancouver, B.C.) under conditions defined by the manufacturer. One 0.05 ml samples were processed automatically from microtiter plates by dilution with an equal volume of Rb^+ sample analysis buffer and injection into an air-acetylene flame. The amount of Rb^+ in the sample was measured by absorption at 780 nm using a hollow cathode lamp as light source and a PMT detector. A calibration curve covering the range 0-5 mg/L Rb^+ in sample analysis buffer was generated with each set of plates. The percent Rb^+ efflux (F) was defined by F=[Rb^+sup/(Rb^+sup+Rb^+Lys)]×100%.
The effect (E) of a compound was defined by: E=[(Fc−Fb)/(Fs−Fb)]×100% where the Fc is the efflux in the presence of compound in depolarization buffer, Fb is the efflux in basal buffer, and Fs is the efflux in depolarization buffer, and Fc is the efflux in the presence of compound in depolarization buffer. The effect (E) and compound concentration relationship was plotted to calculate an EC50 value, a compound's concentration for 50% of maximal Rb^+ efflux. Legend: A: EC50=1 nM-50 nM; B: EC50=50 nM-100 nM; C: EC50=100-200 nM.

Row | Compound | EC50 [nM]
1 | Cc1nc(N2CCc3ccccc3C2)nc(C)c1NC(=O)CC(C)(C)C | 50 to 100
2 | Cc1cc(N2CCc3cc(F)ccc3C2)nc(C)c1NC(=O)CC(C)(C)C | 1 to 50
3 | Cc1cc(N2CCc3cc(C(F)(F)F)ccc3C2)nc(C)c1NC(=O)CC(C)(C)C | 1 to 50
4 | COc1nc(N2CCc3ccccc3C2)nc(OC)c1NC(=O)CC(C)(C)C | 1 to 50
5 | COc1nc(N2CCc3cc(F)ccc3C2)nc(OC)c1NC(=O)CC(C)(C)C | 1 to 50
6 | Cc1cc(N2CCc3ccccc3C2)nc(C)c1NC(=O)CC(C)(C)C | 1 to 50
